Format in all cases: cell-based
In experiment [1] the target is T1, 17-beta-hydroxysteroid dehydrogenase type 1 (Homo sapiens, UniProt P14061).
T1 sequence (P14061 whole entry): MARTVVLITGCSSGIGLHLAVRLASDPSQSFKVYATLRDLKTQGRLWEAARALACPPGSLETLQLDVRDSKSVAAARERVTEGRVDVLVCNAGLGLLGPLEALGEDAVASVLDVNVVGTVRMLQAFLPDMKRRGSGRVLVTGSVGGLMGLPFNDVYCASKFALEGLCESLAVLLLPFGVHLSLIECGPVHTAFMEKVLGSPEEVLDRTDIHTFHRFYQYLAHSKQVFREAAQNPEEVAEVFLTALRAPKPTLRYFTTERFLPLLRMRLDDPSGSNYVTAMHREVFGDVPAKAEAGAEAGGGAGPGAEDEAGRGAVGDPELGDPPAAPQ
The experiment can be described thus: Inhibition of 17beta-HSD1 expressed in intact human T47D cells after 30 mins.

Experiment [2] addresses T2, 17-beta-hydroxysteroid dehydrogenase type 1 (Homo sapiens) (UniProt P14061).
T2 sequence (whole entry): T1 sequence (P14061 whole entry)
Nature of the experiment: Inhibition of 17beta-HSD1 expressed in intact human T47D cells at 10 uM after 30 mins.

In experiment [3] the target is T2, 17-beta-hydroxysteroid dehydrogenase type 1 (Homo sapiens). The experiment can be described thus: Inhibition of 17beta-HSD1 expressed in intact human T47D cells at 1 uM after 30 mins.
The target in experiment [4] is T3, 17-beta-hydroxysteroid dehydrogenase type 2 (Homo sapiens) (UniProt P37059).
T3 sequence (whole entry): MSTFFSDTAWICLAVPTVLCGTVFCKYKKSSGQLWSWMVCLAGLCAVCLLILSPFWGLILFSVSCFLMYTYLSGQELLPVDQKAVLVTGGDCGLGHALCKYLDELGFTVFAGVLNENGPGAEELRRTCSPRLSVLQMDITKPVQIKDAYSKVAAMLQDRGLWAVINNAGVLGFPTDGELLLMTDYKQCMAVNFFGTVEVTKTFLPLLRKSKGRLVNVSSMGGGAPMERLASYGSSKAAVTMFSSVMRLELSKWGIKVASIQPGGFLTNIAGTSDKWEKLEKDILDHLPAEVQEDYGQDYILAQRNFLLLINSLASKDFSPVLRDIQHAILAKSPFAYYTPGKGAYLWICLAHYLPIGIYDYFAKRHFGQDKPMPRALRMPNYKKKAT
Nature of the experiment: Inhibition of 17beta-HSD2 expressed in intact human MDA-MB-231 cells at 10 uM after 3 hrs.

The source made the active and inactive calls. No cut-off for these calls is given here.

These results are taken from ChEMBL document CHEMBL1144736, “Novel inhibitors of 17beta-hydroxysteroid dehydrogenase type 1: templates for design” (Bioorg Med Chem, 2008).

Turning to `CC(=O)c1ccc(-c2ccc(O)cc2C)cc1`, in experiment [1], the half-maximal inhibitory concentration (IC50) was 3.7 µM.
Regarding `COc1ccc(-c2ccc(C(C)=O)cc2)c(C)c1`, the result in experiment [2] was inactive.
For `CCc1cc(-c2ccc3c(c2)CCCC3=O)ccc1OC`, the 50% inhibitory concentration (IC50) in experiment [1] was found to be 8.3 µM. In addition, the inhibition in experiment [2] amounted to 71%.
For the molecule `CCc1cc(-c2ccc3c(c2)CC(CC(=O)NCc2cccnc2)C3=O)ccc1O` (stereo not drawn), the IC50 in experiment [1] was found to be 4.7 µM. In experiment [3], this molecule showed an inhibition of 39%.
For the molecule `COc1ccc2c(c1)Cc1cc(C(C)=O)ccc1-2`, the result in experiment [2] was inactive.
For `CC(=O)c1ccc2c(c1)Cc1cc(O)ccc1-2`, inhibition in experiment [1] was half-maximal at 4.8 µM (IC50). The molecule also displayed an inhibition in experiment [2] of 86%.
Turning to `CCc1cc(-c2ccc3c(c2)CCCC3=O)ccc1O`, the inhibition in experiment [2] was determined as 51%.
On to `CC(=O)c1ccc(-c2ccc(O)cc2)cc1`, for which the concentration for half-maximal inhibition (IC50) in experiment [1] was 3.7 µM. The molecule further registered an inhibition in experiment [2] of 97%.
Consider `CCc1cc(-c2ccc(C(=O)CCC(=O)NCc3ccccn3)cc2)ccc1O`, for which the outcome in experiment [3] was inactive.
In turn, `CCc1cc(-c2ccc(C(=O)CCC(=O)NCCc3cccnc3)cc2)ccc1O` returned an inhibition in experiment [3] of 17%.
For `CCc1cc(-c2ccc(C(=O)CC(C)(C)C(=O)NCc3cccnc3)cc2)ccc1O`, 1.8 µM corresponded to half-maximal inhibition in experiment [1] (IC50). In experiment [3], this molecule registered an inhibition of 38%.
As to `CCc1cc(-c2ccc(C(=O)CCC(=O)NCc3cccnc3)cc2)ccc1O`, the half-maximal inhibitory concentration (IC50) in experiment [1] came to 3.7 µM. In addition, the inhibition worked out at 24% in experiment [3] and 12% in experiment [4].
For `CCc1cc(-c2ccc3c(c2)CCC3=O)ccc1OC`, the outcome in experiment [2] was inactive.
On to `CCc1cc(-c2ccc(C(=O)CCC(=O)NCc3cccnc3)c(C)c2)ccc1O`, for which, in experiment [3], the inhibition came to 21%.
With `CCc1cc(-c2ccc(C(=O)CC(C)(C)C(=O)NCCc3cccnc3)cc2)ccc1O`, in experiment [3], the inhibition came out at 15%.
`COc1ccc(-c2ccc3c(c2)CCC3=O)cc1F` registered an inhibition in experiment [2] of 56%.
Turning to `O=C1CCc2cc(-c3ccccc3)ccc21`, in experiment [2], the result was inactive.
In the case of `CCc1cc2c(cc1O)CC[C@@H]1[C@@H]2CC[C@]2(C)C(=O)[C@@H](CC(=O)NCc3cccnc3)C[C@@H]12`, it took 0.027 µM to reach half-maximal inhibition in experiment [1] (IC50).
Regarding `O=C1CCCc2cc(-c3ccc(O)cc3)ccc21`, the IC50 in experiment [1] is 15.6 µM. The molecule further returned an inhibition in experiment [2] of 89%.
As for `CC(=O)c1ccc(-c2ccc(O)cc2)c(C)c1`, the outcome in experiment [2] was inactive.
Turning to `COc1ccc(-c2ccc3c(c2)CCCC3=O)cc1`, the result in experiment [2] was inactive.
In turn, `O=C1CCc2cc(-c3ccc(O)c(F)c3)ccc21` returned an IC50 in experiment [1] of 2.9 µM. Besides, the inhibition in experiment [2] came to 75%; in experiment [4] it was 24%.
`CCc1cc(-c2ccc(C(=O)CC(C)(C)C(=O)NCc3cccnc3)cc2)ccc1OC` came in with an inhibition in experiment [3] of 17%.
Consider `CCc1cc(-c2ccc(C(C)=O)cc2)ccc1OC`, for which, in experiment [2], the outcome was inactive.
`O=C1CCc2cc(-c3ccc(O)cc3)ccc21` yielded a concentration for half-maximal inhibition (IC50) in experiment [1] of 1.7 µM. Also, the inhibition amounted to 81% in experiment [2] and 17% in experiment [4].
As to `CCc1cc(-c2ccc(O)cc2)ccc1C(C)=O`, the midpoint of inhibition in experiment [1], the IC50, lay at 9.9 µM. The same molecule had an inhibition in experiment [2] of 71%.
Turning to `CCc1cc(-c2ccc3c(c2)CC(CC(=O)NCc2ccccn2)C3=O)ccc1O` (stereo not drawn), in experiment [3], the outcome was inactive.
In turn, `CCc1cc(-c2ccc(C(=O)CCC(=O)NCCO)cc2)ccc1O` registered an inhibition in experiment [3] of 23%.
Regarding `CCc1cc(-c2ccc(C(C)=O)cc2)ccc1O`, 5.4 µM corresponded to half-maximal inhibition in experiment [1] (IC50). Besides, the inhibition in experiment [2] amounted to 73%; in experiment [4], 51%.
As to `COc1ccc(-c2ccc3c(c2)CCC3=O)cc1`, the result in experiment [2] was inactive.
Regarding `CCc1cc(-c2ccc3c(c2)CC(CC(=O)NCc2cnc(C)cn2)C3=O)ccc1O` (stereo not drawn), the outcome in experiment [3] was inactive.
For `COc1ccc(-c2ccc(C(C)=O)cc2C)cc1`, the result in experiment [2] was inactive.
On to `CC(=O)c1ccc(-c2ccc3c(c2)OCO3)cc1`, for which the outcome in experiment [2] was inactive.
`CCc1cc(-c2ccc(C(=O)CCC(=O)NCCc3cccnc3)c(C)c2)ccc1O`: the inhibition in experiment [3] was 15%.
As to `COc1ccc(-c2ccc(C(C)=O)cc2)cc1`, in experiment [2], the outcome was inactive.
With `CCc1cc(-c2ccc3c(c2)CCC3=O)ccc1O`, the 50% inhibitory concentration (IC50) in experiment [1] was 2 µM. Moreover, the inhibition in experiment [2] came out at 86%; in experiment [4], 48%.

The IC50 is the concentration that inhibits the measured activity by half. Read a high IC50 as weaker potency. In general, inhibition refers to the change of the read-out against control, counted positive when it falls.
